Patent US12162867B2, “Inhibitors of RNA helicase DHX9 and uses thereof” (ACCENT THERAPEUTICS, INC., priority 2022, dated 2024)

The molecules below were run on circBRIP1 in HCT116 cells (assay: DHX9 circBRIP1 cellular target engagement SYBR Green assay (qPCR)). Conditions: Homo sapiens, HCT-116, circBRIP1, HCT116 cells; SyBr assay (marked ^+); read-out: DHX9 Cellular Target Engagement EC50.
Type: cell-based

SMILES	EC50 [nM]
Cc1cc(C(=O)Nc2cc(Cl)cc(NS(C)(=O)=O)c2)cn1-c1ccc(N(C)C2CCOC2)cn1 (centres unmarked) [Example 269]	37
CS(=O)(=O)Nc1cc(Br)cc(NC(=O)c2cc(-n3cccn3)cs2)c1 [Example 60]	201
Cn1nc(C(=O)Nc2cc(Cl)cc(NS(C)(=O)=O)c2)cc1-c1ccccn1 [Example 140]	> 10000
CS(=O)(=O)Nc1cc(Br)cc(NC(=O)c2cnn(-c3ccc(C(F)(F)F)cn3)c2)c1 [Example 43]	4710
COCc1sc(C(=O)Nc2cc(Cl)cc(NS(C)(=O)=O)c2)cc1-c1ccccn1 [Example 234]	1180
CS(=O)(=O)Nc1cc(Cl)cc(NC(=O)c2cc3cnccc3s2)c1 [Example 288]	7800
CCS(=O)(=O)Nc1cc(Cl)cc(NC(=O)c2cc(-c3ncccn3)n(C)c2)c1 [Example 173, N-(3-chloro-5-(ethylsulfonamido)phenyl)-1-methyl-5-(pyrimidin-2-yl)-1H-pyrrole-3-carboxamide]	118
CS(=O)(=O)Nc1cc(Cl)cc(NC(=O)c2cnn(-c3ncccc3OCc3ccncc3)c2)c1 [Example 64]	5640
Cc1cc(C(=O)Nc2cc(Cl)cc(NS(C)(=O)=O)c2)cn1-c1ncc(F)cn1 [Example 207]	508
CN1CCN(c2cnc(-n3cc(C(=O)Nc4cc(Cl)cc(NS(C)(=O)=O)c4)cn3)cn2)CC1=O [Example 184]	> 10000
CS(=O)(=O)Nc1cc(Cl)cc(NC(=O)c2cnn(-c3ncccc3C(F)(F)F)c2)c1 [Example 47]	6730
CC(=O)NC1CC2(C1)CC(n1cc(C(=O)Nc3cc(Cl)cc(NS(C)(=O)=O)c3)cn1)C2 (centres unmarked) [Example 310]	> 10000
CS(=O)(=O)Nc1cc(Cl)cc(NC(=O)c2coc(-c3ccccc3)c2)c1 [Example 125]	16100
CS(=O)(=O)Nc1cc(Cl)cc(NC(=O)c2cnn(-c3ncc(N4CC5(COC5)C4)cc3OCc3cc(F)cc(F)c3)c2)c1 [Example 258]	291
Cc1cccnc1-c1nc(C(=O)Nc2cc(Cl)cc(NS(C)(=O)=O)c2)cn1C [Example 156]	> 10000
CS(=O)(=O)Nc1cc(Cl)cc(NC(=O)c2cnn(-c3ncccc3OCc3cncnc3)c2)c1 [Example 188]	1460
CS(=O)(=O)Nc1cc(Cl)cc(NC(=O)c2cc(-c3cccnc3)cs2)c1 [Example 116, N-(3-chloro-5-(methylsulfonamido)phenyl)-4-(pyridin-3-yl)thiophene-2-carboxamide]	734
CS(=O)(=O)Nc1cc(Cl)cc(NC(=O)c2cnn(-c3ncccc3OCc3cnco3)c2)c1 [Example 66]	4870
CS(=O)(=O)Nc1cc(Br)cc(NC(=O)c2cnn(C3CCCCC3)c2)c1 [Example 48]	1410
Cn1cc(C(=O)Nc2cc(Cl)cc(NS(C)(=O)=O)c2)cc1-c1ccc(N2CCOCC2)cn1 [Example 273]	37.5
CS(=O)(=O)Nc1cc(Cl)cc(NC(=O)c2cnn(-c3ccccc3Oc3ncccn3)c2)c1 [Example 263]	> 10000
CS(=O)(=O)Nc1cc(Br)cc(NC(=O)c2cnn(-c3cnccn3)c2)c1 [Example 40]	1150
CS(=O)(=O)Nc1cc(Cl)cc(NC(=O)c2c[nH]c(-c3ccccc3)n2)c1 [Example 6]	9340
CS(=O)(=O)Nc1cc(Cl)cc(NC(=O)c2cnn(-c3ncc(N4CCOCC4)cc3OCc3cccnc3)c2)c1 [Example 194]	2680
CS(=O)(=O)Nc1cc(Cl)cc(NC(=O)c2cc3c(F)cccn3c2)c1 [Example 305]	3330

SMILES	EC50 [nM]
Cc1cc(C(=O)Nc2cc(Cl)cc(NS(=O)(=O)C(F)F)c2)cn1-c1ccc(N2CCOCC2)cn1 [Example 248]	> 10000
CS(=O)(=O)Nc1cc(Br)cc(NC(=O)c2cnn(-c3ncccc3N)c2)c1 [Example 162, 1-(3-aminopyridin-2-yl)-N-(3-bromo-5-(methylsulfonamido)phenyl)-1H-pyrazole-4-carboxamide]	138
CS(=O)(=O)Nc1cc(F)cc(NC(=O)c2cc(-c3ccccc3)cs2)c1 [Example 73]	11200
CS(=O)(=O)Nc1cc(Cl)cc(NC(=O)c2cc3c(=O)[nH]ccn3c2)c1 [Example 301]	2410
CS(=O)(=O)Nc1cc(Cl)cc(NC(=O)c2cnn(-c3ccccc3Oc3cccc(F)c3)c2)c1 [Example 265]	4650
CC(c1ccccc1)n1cc(C(=O)Nc2cc(Cl)cc(NS(C)(=O)=O)c2)cn1 (centres unmarked) [Example 142, N-(3-chloro-5-(methylsulfonamido)phenyl)-1-(1-phenylethyl)-1H-pyrazole-4-carboxamide]	> 10000
CS(=O)(=O)Nc1cc(Cl)cc(NC(=O)c2cc(-c3ncccc3C(F)(F)F)cs2)c1 [Example 223]	421
CC(C)C(=O)N1CCN(c2ccc(-n3cc(C(=O)Nc4cc(Cl)cc(NS(C)(=O)=O)c4)cn3)nc2)CC1 [Example 149, N-(3-chloro-5-(methylsulfonamido)phenyl)-1-(5-(4-isobutyrylpiperazin-1-yl)pyridin-2-yl)-1H-pyrazole-4-carboxamide]	1800
CS(=O)(=O)Nc1cc(Cl)cc(NC(=O)c2cc3c(C(F)(F)F)cccc3s2)c1 [Example 323]	> 10000
CS(=O)(=O)Nc1cc(Cl)cc(NC(=O)c2cnn(-c3cc(N4CCOCC4)ccn3)c2)c1 [Example 91]	382
CS(=O)(=O)Nc1cc(Cl)cc(NC(=O)c2cnn(-c3ncccc3OCc3c[nH]cn3)c2)c1 [Example 254]	578
CS(=O)(=O)Nc1cc(Cl)cc(NC(=O)c2cn(-c3ccccc3)cn2)c1 [Example 1, N-(3-chloro-5-(methylsulfonamido)phenyl)-1-phenyl-1H-imidazole-4-carboxamide]	16400
CS(=O)(=O)Nc1cc(Cl)cc(NC(=O)c2cc(-c3ncccc3CC(=O)N3CCCC3)cs2)c1 [Example 383]	557
CS(=O)(=O)Nc1cc(Cl)cc(NC(=O)c2cc(-c3ccc(N4CCOCC4)cn3)n(CC(F)(F)F)c2)c1 [Example 275]	190
Cc1cc(C(=O)Nc2cc(Cl)cc(NS(C)(=O)=O)c2)cn1C1CCCC1 [Example 282]	1880
CS(=O)(=O)Nc1cc(Cl)cc(NC(=O)c2cc3cccc(F)c3s2)c1 [Example 297]	> 10000
CS(=O)(=O)Nc1cc(Cl)cc(NC(=O)c2cnn(C3CCOCC3)c2)c1 [Example 131, N-(3-chloro-5-(methylsulfonamido)phenyl)-1-(tetrahydro-2H-pyran-4-yl)-1H-pyrazole-4-carboxamide]	> 10000
CS(=O)(=O)Nc1cc(Cl)cc(NC(=O)c2cc3c(C(F)(F)F)cccn3c2)c1 [Example 302]	1930
CS(=O)(=O)Nc1cc(Cl)cc(NC(=O)c2cc3ccc(Cl)cn3c2)c1 [Example 299]	> 10000
CS(=O)(=O)Nc1cc(Cl)cc(NC(=O)c2cnn(-c3ncccc3C#N)c2)c1 [Example 46]	2250
Cc1sc(C(=O)Nc2cc(Br)cc(NS(C)(=N)=O)c2)cc1-c1ccccn1 (centres unmarked) [Example 123]	6590
COc1ccc2cc(C(=O)Nc3cc(Cl)cc(NS(C)(=O)=O)c3)sc2c1 [Example 327]	3540
CC(=O)N1CC2(CC(n3cc(C(=O)Nc4cc(Cl)cc(NS(C)(=O)=O)c4)cn3)C2)C1 [Example 313]	> 10000
CS(=O)(=O)Nc1cc(F)cc(NC(=O)c2cc(-c3cccnc3)cs2)c1 [Example 105, N-(3-fluoro-5-(methylsulfonamido)phenyl)-4-(pyridin-3-yl)thiophene-2-carboxamide]	8330
CS(=O)(=O)Nc1cc(Cl)cc(NC(=O)c2cc(-c3cccc(F)c3)cs2)c1 [Example 108]	6650

Same assay, conditions: Homo sapiens, HCT-116, circBRIP1, HCT116 cells; ^+ SyBr assay was used; read-out: DHX9 Cellular Target Engagement EC50

SMILES	EC50 [nM]
CS(=O)(=O)Nc1cc(Cl)cc(NC(=O)c2cc(-c3ncc(F)cn3)c(C3CC3)s2)c1 [Example 448]	2730
Cn1cc(C(=O)Nc2cc(Cl)cc(NS(C)(=O)=O)c2)cc1-c1ncc(F)cc1-c1cncc(F)c1 [Example 604, N-(3-chloro-5-methanesulfonamidophenyl)-5-{5,5′-difluoro-[3,3′-bipyridin]-2-yl}-1-methylpyrrole-3-carboxamide]	160
CN1CCN(C(=O)c2cc(C(=O)Nc3cc(Cl)cc(NS(C)(=O)=O)c3)cn2-c2ccccn2)CC1 [Example 665]	4990
Cn1cc(C(=O)Nc2cc(Cl)cc(NS(C)(=O)=O)c2)cc1-c1ccc(F)cn1 [Example 575]	215
Cc1ncccc1-c1cc(F)cnc1-c1cc(C(=O)Nc2cc(Cl)cc(NS(C)(=O)=O)c2)sc1C [Example 608]	422
CS(=O)(=O)Nc1cc(Cl)cc(NC(=O)c2cc(C3CC3)n(-c3ncc(F)cn3)c2)c1 [Example 451]	1050
CS(=O)(=O)Nc1cc(Cl)cc(NC(=O)c2cnn(-c3c(F)cccc3OCc3cnco3)c2)c1 [Example 721]	1570
CS(=O)(=O)Nc1cc(Cl)cc(NC(=O)c2cnn(-c3ccccc3COc3cncc(F)c3)c2)c1 [Example 428]	201
Cc1cc(C(=O)Nc2cc(Cl)cc(NS(C)(=O)=O)c2)cn1-c1ncc(OC2COC2)cn1 [Example 669]	124
Cc1sc(C(=O)Nc2cc(Cl)cc(NS(C)(=O)=O)c2)cc1-n1cc(F)cn1 [Example 439]	199
COc1cnn(-c2csc(C(=O)Nc3cc(Cl)cc(NS(C)(=O)=O)c3)c2)c1 [Example 435]	1150
CC(C)(O)c1cc(C(=O)Nc2cc(Cl)cc(NS(C)(=O)=O)c2)cn1-c1ccccn1 [Example 650]	859
CS(=O)(=O)Nc1cc(Cl)cc(NC(=O)c2cnn(-c3ncccc3Oc3cccc(F)c3)c2)c1 [Example 427]	305
CS(=O)(=O)Nc1cc(Cl)cc(NC(=O)c2cnn(-c3ncccc3-c3cncc(F)c3)c2)c1 [Example 392]	2800
Cc1sc(C(=O)Nc2cc(Cl)cc(NS(C)(=O)=O)c2)cc1-c1ncc(F)cc1-c1cnco1 [Example 705]	679
Cc1sc(C(=O)Nc2cc(Cl)cc(NS(C)(=O)=O)c2)cc1-c1ncc(F)cc1-c1ccn(C)c(=O)c1 [Example 605]	5330
CS(=O)(=O)Nc1cc(Cl)cc(NC(=O)c2cnn(C3CCCC3OCc3ccccc3)c2)c1 (centres unmarked) [Example 424]	4110
Cn1cc(C(=O)Nc2cc(Cl)cc(NS(C)(=O)=O)c2)cc1-c1ccc(C#N)cn1 [Example 570]	224
